# Test results reported in ChEMBL document CHEMBL1201862, “PubChem BioAssay data set” (2004).
#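 Values below derive from 48-hour exposures of cells grown in 96-well plates, with endpoints linearly interpolated between the two concentrations bracketing the appropriate inhibition level. At the GI50, growth is halved.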 The source made the active and inactive calls. Cut-off read from the data, not from the text of the source: active = GI50 up to about 1.1 µM and inactive = higher.
# Assays:
# Test in all cases: NCI-60 cell line screen, 48 h
# OVCAR-5 = system: OVCAR-5
# RXF 393 = system: RXF 393
# KM12 = system: KM12
# HCC 2998 = system: HCC 2998
# OVCAR-8 = system: OVCAR-8
# HCT-15 = system: HCT-15
# HOP-92 = system: HOP-92
# UACC-257 = system: UACC-257
# SK-MEL-2 = system: SK-MEL-2
# SNB-75 = system: SNB-75
# M14 = system: M14
# SK-OV-3 = system: SK-OV-3
# SK-MEL-5 = system: SK-MEL-5
# HCT-116 = system: HCT-116
# HT-29 = system: HT-29
# PC-3 = system: PC-3
# MDA-N = system: MDA-N
# T47D = system: T47D
# OVCAR-4 = system: OVCAR-4
# MCF7 = system: MCF7
Compound,GI50 (OVCAR-5),GI50 (RXF 393),GI50 (KM12),GI50 (HCC 2998),GI50 (OVCAR-8),GI50 (HCT-15),GI50 (HOP-92),GI50 (UACC-257),GI50 (SK-MEL-2),GI50 (SNB-75),GI50 (M14),GI50 (SK-OV-3),GI50 (SK-MEL-5),GI50 (HCT-116),GI50 (HT-29),GI50 (PC-3),GI50 (MDA-N),GI50 (T47D),GI50 (OVCAR-4),GI50 (MCF7)
CCOC(=O)C(C)OC(=O)c1ccc(C)cc1 (configuration not stated),> 100 µM (inactive),> 100 µM (inactive),> 100 µM (inactive),> 100 µM (inactive),> 100 µM (inactive),> 100 µM,> 100 µM (inactive),> 100 µM (inactive),> 100 µM (inactive),> 100 µM (inactive),> 100 µM (inactive),> 100 µM (inactive),> 100 µM (inactive),> 100 µM (inactive),> 100 µM (inactive),,,,,
COc1ccc2oc3c(ccc[n+]3C)c(=O)c2c1,> 100 µM (inactive),> 100 µM (inactive),> 100 µM (inactive),> 100 µM (inactive),> 100 µM (inactive),> 100 µM,> 100 µM (inactive),,> 100 µM (inactive),> 100 µM (inactive),> 100 µM (inactive),> 100 µM (inactive),> 100 µM (inactive),> 100 µM (inactive),> 100 µM (inactive),> 100 µM (inactive),> 100 µM (inactive),> 100 µM (inactive),> 100 µM (inactive),> 100 µM (inactive)
Nc1nc(N)nc(-c2ccccc2NS(=O)(=O)c2ccc([N+](=O)[O-])cc2)n1,> 100 µM (inactive),> 52 µM (inactive),84.9 µM (inactive),> 70.5 µM (inactive),40.1 µM (inactive),> 84.5 µM,> 100 µM (inactive),43 µM (inactive),81.5 µM (inactive),> 52.2 µM (inactive),,> 100 µM (inactive),29 µM (inactive),67.5 µM (inactive),53.7 µM (inactive),,,,44.2 µM (inactive),> 81.5 µM (inactive)
O=C(Nc1ccc(I)cc1C(=O)NCCO)c1cccs1,> 100 µM (inactive),> 100 µM (inactive),> 100 µM (inactive),> 100 µM (inactive),> 100 µM (inactive),> 100 µM,,> 100 µM (inactive),> 100 µM (inactive),,> 100 µM (inactive),> 100 µM (inactive),> 100 µM (inactive),> 100 µM (inactive),> 100 µM (inactive),> 100 µM (inactive),,,> 100 µM (inactive),> 100 µM (inactive)
COc1ccc2c(=O)c(O)c(-c3ccc(OC)c(OC)c3)oc2c1,20.8 µM (inactive),,,27.9 µM (inactive),3.71 µM (inactive),3.5 µM,4.18 µM (inactive),6.76 µM (inactive),,,5.45 µM (inactive),5.42 µM (inactive),5.5 µM (inactive),4.97 µM (inactive),4.92 µM (inactive),9.38 µM (inactive),> 100 µM (inactive),> 100 µM (inactive),0.191 µM (active),3.74 µM (inactive)
COc1nc(Cl)nc(N[C@H](C)c2c3ccccc3cc3ccccc23)n1,17.3 µM (inactive),12.5 µM (inactive),11.7 µM (inactive),,14.8 µM (inactive),13.3 µM,18.6 µM (inactive),16 µM (inactive),15.8 µM (inactive),21.8 µM (inactive),,15.7 µM (inactive),5.38 µM (inactive),12.4 µM (inactive),15.5 µM (inactive),14.9 µM (inactive),2.71 µM (inactive),1.99 µM (inactive),3.12 µM (inactive),14.2 µM (inactive)
COC1=CC(=O)c2c(c(COC(C)=O)cn2C)C1=O,0.0223 µM (active),0.0809 µM (active),0.0962 µM (active),,0.122 µM (active),0.0197 µM,0.291 µM (active),0.334 µM (active),0.163 µM (active),0.308 µM (active),0.0632 µM (active),0.119 µM (active),0.118 µM (active),0.0347 µM (active),0.0261 µM (active),0.309 µM (active),0.0942 µM (active),0.736 µM (active),0.257 µM (active),0.184 µM (active)
CC(=O)Oc1c(OC(C)=O)c(-c2ccc(O)c(O)c2)c(O)c(O)c1-c1ccc(O)cc1,> 100 µM (inactive),,> 100 µM (inactive),> 100 µM (inactive),46.2 µM (inactive),> 100 µM,30.2 µM (inactive),> 100 µM (inactive),29.4 µM (inactive),97.5 µM (inactive),,> 100 µM (inactive),19.7 µM (inactive),> 100 µM (inactive),> 100 µM (inactive),,,,> 100 µM (inactive),> 100 µM (inactive)
CCN(CC)CCCNC(=O)c1ccccc1Nc1c(Cl)cccc1Cl,11.7 µM (inactive),8.11 µM (inactive),,7.03 µM (inactive),15.7 µM (inactive),12.6 µM,,3.03 µM (inactive),,3.43 µM (inactive),2.64 µM (inactive),14.2 µM (inactive),2.96 µM (inactive),11.5 µM (inactive),4.23 µM (inactive),,,,7.31 µM (inactive),
O=C1CN2Cc3cc(N4CCOCC4)ccc3N=C2N1,87.3 µM (inactive),73.3 µM (inactive),43.3 µM (inactive),,72.9 µM (inactive),22.9 µM,> 100 µM (inactive),89.1 µM (inactive),42.7 µM (inactive),31.5 µM (inactive),33 µM (inactive),25.8 µM (inactive),27.8 µM (inactive),21.3 µM (inactive),38 µM (inactive),31.4 µM (inactive),,> 100 µM (inactive),67.9 µM (inactive),60.8 µM (inactive)
COc1ccc2[nH]c(C(=O)N3CC(CCl)c4c3cc(N)c3ccccc43)cc2c1 (configuration not stated),< 0.01 µM (active),< 0.01 µM (active),< 0.01 µM (active),< 0.01 µM (active),< 0.01 µM (active),< 0.01 µM,< 0.018 µM (active),0.0119 µM (active),0.0122 µM (active),< 0.01 µM (active),< 0.01 µM (active),< 0.014 µM (active),< 0.01 µM (active),< 0.01 µM (active),< 0.01 µM (active),< 0.01 µM (active),0.0112 µM (active),0.0101 µM (active),< 0.01 µM (active),< 0.01 µM (active)
Cc1cccc2sc(-c3ccc(O)cc3)nc12,16.4 µM (inactive),16.9 µM (inactive),15.5 µM (inactive),,16.7 µM (inactive),12.6 µM,,18.8 µM (inactive),17.7 µM (inactive),12.6 µM (inactive),15.2 µM (inactive),19.6 µM (inactive),5.81 µM (inactive),15.6 µM (inactive),15.3 µM (inactive),17.5 µM (inactive),3.97 µM (inactive),,16 µM (inactive),12.2 µM (inactive)
O=C(O)CC/C(=N\Nc1nsc2ccccc12)c1ccccc1,> 100 µM (inactive),39.1 µM (inactive),> 100 µM (inactive),30.5 µM (inactive),66.7 µM (inactive),36 µM,51.3 µM (inactive),57.3 µM (inactive),> 100 µM (inactive),0.82 µM (active),54.5 µM (inactive),,79.6 µM (inactive),41.6 µM (inactive),34.4 µM (inactive),,,,58.5 µM (inactive),
